Data taken from PMC7515946, “Targeting of Perforin Inhibitor into the Brain Parenchyma Via a Prodrug Approach Can Decrease Oxidative Stress and Neuroinflammation and Improve Cell Survival” (Molecular Neurobiology, 2020).
Non-standard residues stand in square brackets, D forms with d. No end group written: not given here. Sta = CC(C)C[C@H](N)[C@@H](O)CC(=O)O

How the values were obtained:
[1] = target: T1, purified human β-site amyloid precursor protein (APP) cleaving enzyme 1 (BACE1) (Homo sapiens, UniProt P56817); assay: BACE1 FRET inhibition assay; assay type: biochemical; details: 0.25 μM, 30 min
T1 construct: purchased AnaSpec, Inc. (Fremont, CA, USA), SensoLyte 520 BACE1 Assay kit
Text: A fluorometric assay was used to screen the inhibitory effect of the studied compounds on purified human β-site amyloid precursor protein (APP) cleaving enzyme 1 (BACE1) using a fluorescence resonance energy transfer (FRET) peptide technique (SensoLyte© 520 BACE1 Assay kit, AnaSpec, Inc., Fremont, CA, USA) according to the manufacturer’s protocol. […] The sequence of the FRET peptide has been derived from the β-secretase cleavage site of β-amyloid precursor protein (APP) with Swedish mutation, which enhances β-secretase to process APP resulting in an early onset of AD. Thus, active β-secretase cleaved the FRET substrate into two separate fragments resulting in the release of HiLyte™ Fluor 488 fluorescence that was measured by the Envision plate reader (EnVision, Perkin Elmer, Waltham, MA, USA) at λex 490 nm and λem 520 nm.

caspase-3/-7 = assay: Caspase-3/-7 in brain of LPS-induced neuroinflammation mice; assay type: in vivo, mouse; details: LPS 250 μg/kg i.p. for 3 days, relative to control
Experimental: Adult male C57BL/6JOlaHsd mice (Jackson Laboratories, Bar Harbor, ME, USA) were supplied by Envigo (Venray, Netherlands). Mice were housed in stainless steel cages on a 12-h light (07:00–19:00) and 12-h dark (19:00–07:00) cycle at an ambient temperature of 22 ± 1 °C with a relative humidity of 50–60%. All experiments were carried out during the light phase. Tap water and food pellets (Lactamin R36; Lactamin AB, Södertälje, Sweden) were available ad libitum. Neuroinflammation was induced by the treatment with LPS 250 μg/kg i.p once per day for 3 consequent days followed by decapitation on the 4th day. The animals were allocated to one of four treatment groups (n = 6 per group): (1) LPS-treated mice, (2) mice treated with LPS and the studied compound (30 μmol/kg; i.v.) for 3 days and 120 min before the decapitation on the 4th day (preventative efficacy), (3) mice treated with LPS for 3 days and with the studied compound (30 μmol/kg; i.v.) only for the last 2 days, and (4) control mice treated with 0.9% NaCl solution i.p. once per day for 3 days. After decapitation, mouse blood and brain samples were collected. […] The plasma layer was centrifuged again at 12,000 × g to remove the platelets. Plasma was stored at − 80 °C until analysis. The brains were snap-frozen in liquid nitrogen and stored at − 80 °C until analysis.
The effects of the compounds on the enzyme activity of caspase-3 and caspase-7 were evaluated from the snap-frozen mouse brain. Pieces of tissues (n = 3) were homogenized in 50 mM Tris–HCl (pH 7.4) 1:10 (w/v) with a bead mill homogenizer. […] The enzyme activity was measured with an Apo-ONE Homogenous Caspase-3/7 Assay kit (Promega Corporation, Madison, WI, USA) according to the manufacturer’s instruction. The assay was performed on 96-well plates, each sample having 3 replicates. Each of the sample wells contained 100 μL of the previously collected supernatant and 100 μL of the prepared Apo-ONE reagent. The blank measurement was carried out with the homogenization buffer and Apo-ONE reagent. Once all the samples and reagents were pipetted in the wells, the plate was carefully shaken for 30 s and left for incubation in dark at room temperature. The fluorescence was measured after the incubation with an EnVision 2104 Multilabel Reader (PerkinElmer, Waltham, MA, USA), with λex 499 nm and λem 521 nm. The measurement was repeated on multiple time points between 0.5 and 24 h.

[2] = tested on: prostaglandin E2 (PGE2) production; assay: Brain PGE2 production in LPS-induced mice; assay type: in vivo, mouse; details: LPS 250 μg/kg per day for 3 days; control 5.72 ± 1.83
Experimental: Adult male C57BL/6JOlaHsd mice (Jackson Laboratories, Bar Harbor, ME, USA) were supplied by Envigo (Venray, Netherlands). Mice were housed in stainless steel cages on a 12-h light (07:00–19:00) and 12-h dark (19:00–07:00) cycle at an ambient temperature of 22 ± 1 °C with a relative humidity of 50–60%. All experiments were carried out during the light phase. Tap water and food pellets (Lactamin R36; Lactamin AB, Södertälje, Sweden) were available ad libitum. Neuroinflammation was induced by the treatment with LPS 250 μg/kg i.p once per day for 3 consequent days followed by decapitation on the 4th day. […]
The effects of the studied compounds to inhibit PGE2 production in the mouse brain were evaluated after LPS-induction as curative and preventative treatments. […] The data were acquired using the Agilent MassHunter Workstation software (version B.06.00) and processed with the Quantitative Analysis (B.07.00) software. The lower limit of quantification (LLOQ) for PGE2 was 1 nM.

LAT1 = target: T2, LAT1 (Mus musculus, UniProt Q9Z127); assay: Ability to bind to LAT1: inhibition of [14C]-L-leucine uptake in astrocytes; assay type: cell-based; details: mouse primary astrocytes, 0.76 μM [14C]-L-leucine, 5 min, 37 °C
T2 construct: endogenous in cells; host or cells: mouse primary astrocytes (C57BL/6JOlaHsd), cortex and hippocampi
Experimental: For the transporter-binding studies, the astrocytes were seeded on 24-well plates with a density of 10 × 10^4 cells/well 3 days before the experiments. After removal of the culture medium, the cells were carefully washed with pre-warmed HBSS (Hank’s balanced salt solution) containing choline chloride (125 mM), KCl (4.8 mM), MgSO4 (1.2 mM), KH2PO4 (1.2 mM), CaCl2 (1.3 mM), glucose (5.6 mM), and HEPES (25 mM) adjusted to pH 7.4 with 1 M NaOH. The cells were pre-incubated with 500 μL of pre-warmed HBSS at 37 °C for 5 min before the experiments. To study the ability of studied compounds to inhibit the uptake of a known LAT1 substrate, the cells were incubated at 37 °C for 5 min with an uptake buffer (HBSS, 250 μL) containing 0.76 μM (0.25 mCi/mL or […]) of [^14C]-L-leucine (PerkinElmer, Waltham, MA, USA) and 0.1–1000 μM of studied compound (or HBSS as blank). After incubation, the uptake was stopped by adding 500 μL of ice-cold HBSS, and the cells were washed two times with ice-cold HBSS (2 × 500 μL). The cells were then lysed with 500 μL of NaOH (0.1 M) for 60 min and the lysate was mixed with 3.5 mL of Emulsifier-Safe cocktail (Ultima Gold, PerkinElmer, Waltham, MA, USA). The radioactivity in the cells was measured by liquid scintillation counting (MicroBeta^2 counter, PerkinElmer Waltham, MA, USA). Half of the maximum inhibitory concentration (IC50) values were calculated by nonlinear regression analysis (fitting the curve to log (concentration) vs. remaining normalized viability).

[3] = tested on: MCF-7 human breast adenocarcinoma cells; assay: Cell viability of MCF-7 cells with cisplatin co-treatment (resazurin); assay type: cell-based; details: 100 μM, 72 h incubation

T2 sequence (Q9Z127 whole entry): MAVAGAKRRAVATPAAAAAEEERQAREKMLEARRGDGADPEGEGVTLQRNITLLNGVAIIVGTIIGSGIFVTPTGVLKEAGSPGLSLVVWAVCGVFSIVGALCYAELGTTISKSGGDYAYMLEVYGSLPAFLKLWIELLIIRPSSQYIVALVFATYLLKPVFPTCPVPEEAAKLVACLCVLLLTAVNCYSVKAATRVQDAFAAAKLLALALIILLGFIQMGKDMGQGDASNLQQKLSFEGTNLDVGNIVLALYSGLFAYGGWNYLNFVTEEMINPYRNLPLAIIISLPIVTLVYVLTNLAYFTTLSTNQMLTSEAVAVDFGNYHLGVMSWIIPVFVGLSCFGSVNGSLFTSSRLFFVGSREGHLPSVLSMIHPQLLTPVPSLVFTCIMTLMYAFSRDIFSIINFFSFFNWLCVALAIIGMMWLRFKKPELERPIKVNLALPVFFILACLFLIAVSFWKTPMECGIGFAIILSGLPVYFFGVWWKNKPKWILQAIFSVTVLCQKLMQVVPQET
T2 sequence (P10852 whole entry partner): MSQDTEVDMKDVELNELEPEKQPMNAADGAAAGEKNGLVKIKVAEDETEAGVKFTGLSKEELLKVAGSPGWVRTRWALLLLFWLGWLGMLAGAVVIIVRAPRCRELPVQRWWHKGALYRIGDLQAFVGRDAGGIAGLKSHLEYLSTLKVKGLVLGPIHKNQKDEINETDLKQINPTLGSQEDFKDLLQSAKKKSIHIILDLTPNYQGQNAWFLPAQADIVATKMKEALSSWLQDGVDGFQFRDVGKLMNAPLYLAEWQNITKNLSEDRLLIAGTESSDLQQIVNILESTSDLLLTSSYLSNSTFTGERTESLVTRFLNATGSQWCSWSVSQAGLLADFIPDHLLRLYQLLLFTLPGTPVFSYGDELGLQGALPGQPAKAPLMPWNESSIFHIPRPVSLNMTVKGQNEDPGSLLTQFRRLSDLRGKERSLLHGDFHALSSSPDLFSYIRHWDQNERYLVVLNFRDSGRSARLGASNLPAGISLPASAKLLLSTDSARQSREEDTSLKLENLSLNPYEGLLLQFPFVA
T1 sequence (P56817 22-501 limits assumed): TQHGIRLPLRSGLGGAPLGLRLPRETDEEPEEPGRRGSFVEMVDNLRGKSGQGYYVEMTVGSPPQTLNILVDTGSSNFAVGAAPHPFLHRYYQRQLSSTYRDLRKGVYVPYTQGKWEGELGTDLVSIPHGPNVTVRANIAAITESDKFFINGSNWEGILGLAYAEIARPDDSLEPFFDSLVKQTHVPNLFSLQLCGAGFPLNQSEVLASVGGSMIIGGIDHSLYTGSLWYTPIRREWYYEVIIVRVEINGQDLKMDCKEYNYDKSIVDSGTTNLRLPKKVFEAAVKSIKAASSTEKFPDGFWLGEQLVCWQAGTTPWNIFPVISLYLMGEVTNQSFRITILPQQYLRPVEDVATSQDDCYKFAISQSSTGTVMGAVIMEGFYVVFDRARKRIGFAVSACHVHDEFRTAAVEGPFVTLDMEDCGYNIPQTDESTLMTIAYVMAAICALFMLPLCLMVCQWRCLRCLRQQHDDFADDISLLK

KTEEISEVN-Sta-VAEF-NH2 (KTEEISEVN[Sta]VAEF-NH2; N-terminus assumed; SMILES CC[C@H](C)[C@H](NC(=O)[C@H](CCC(=O)O)NC(=O)[C@H](CCC(=O)O)NC(=O)[C@@H](NC(=O)[C@@H](N)CCCCN)[C@@H](C)O)C(=O)N[C@@H](CO)C(=O)N[C@@H](CCC(=O)O)C(=O)N[C@H](C(=O)N[C@@H](CC(N)=O)C(=O)N[C@@H](CC(C)C)[C@@H](O)CC(=O)N[C@H](C(=O)N[C@@H](C)C(=O)N[C@@H](CCC(=O)O)C(=O)N[C@@H](Cc1ccccc1)C(N)=O)C(C)C)C(C)C) [BACE1 inhibitor, reference compound]
Inhibition of BACE1 activity [1]: ca. 86%

lipopolysaccharide [LPS]
Brain caspase-3/-7 levels, LPS alone (caspase-3/-7): 137%
Brain PGE2 production, LPS alone [2]: 16.56 ± 2.45 nmol of PGE2/mg tissue

CNC(=O)COc1ccc(-c2c(C#N)c(NC(=O)c3cccc(C[C@H](N)C(=O)O)c3)n3c(nc4ccccc43)c2C#N)cc1 [LAT1 inhibitor, KMH-233, reference compound]
IC50 (LAT1): 14.4 ± 1.2 µM
IC50 (LAT1; listed as LAT1-inhibitor): 14 µM

N.N.[Cl][Pt][Cl] [cisplatin, reference compound]
Inhibition of MCF-7 cell growth [3]: 51%
